Assay results as given in the supplement of paper PMC10307832.

Key:
Experiment in all cases: relative viability (nuclei count vs DMSO), 5 days (fraction); higher = more cells survive
H3255 = system: H3255
Outline: (§1)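 Lung cancer cell lines were pin-tool dosed in 1536-well plates on the day after seeding, with either a lone drug or a fixed anchor-drug dose plus five library-drug doses (not always all listed) in √10 steps. Nuclei were counted on 4× images after 5 days. Relative viability is the ratio of treated-well to vehicle-well nuclei counts, with each value a median of duplicate plates.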

NCI-H1975 = system: NCI-H1975
Outline: as §1

NCI-H1944 = system: NCI-H1944
Outline: as §1

NCI-H1395 = system: NCI-H1395
Outline: as §1

NCI-H1734 = system: NCI-H1734
Outline: as §1

NCI-H1666 = system: NCI-H1666
Outline: as §1

CAL-12T = system: CAL-12T
Outline: as §1

NCI-H838 = system: NCI-H838
Outline: as §1

NCI-H647 = system: NCI-H647
Outline: as §1

PC-14 = system: PC-14
Outline: as §1

NCI-H3122 = system: NCI-H3122
Outline: as §1

PC-3 [JPC-3] = system: PC-3 [JPC-3]
Outline: as §1

HCC-366 = system: HCC-366
Outline: as §1

LC-2-ad = system: LC-2-ad
Outline: as §1

NCI-H522 = system: NCI-H522
Outline: as §1

HARA = system: HARA
Outline: as §1

NCI-H1993 = system: NCI-H1993
Outline: as §1

LU99A = system: LU99A
Outline: as §1

HCC-15 = system: HCC-15
Outline: as §1

## CCCCCCCCCCCC1=C(O)C(=O)C=C(O)C1=O [Embelin] + NC(=O)Nc1cc(-c2cccc(F)c2)sc1C(=O)N[C@H]1CCCNC1 [AZD7762] (partner 0.2 µM)
H3255; first compound 0.08 µM
  relative viability: 0.826
H3255; first compound 0.8 µM
  relative viability: 0.975
H3255; first compound 2.53 µM
  relative viability: 0.894
H3255; first compound 8 µM
  relative viability: 0.913
NCI-H1975; first compound 0.08 µM
  relative viability: 0.708
NCI-H1975; first compound 0.8 µM
  relative viability: 0.753
NCI-H1975; first compound 2.53 µM
  relative viability: 0.806
NCI-H1975; first compound 8 µM
  relative viability: 0.703
NCI-H1944; first compound 0.08 µM
  relative viability: 0.449
NCI-H1944; first compound 0.8 µM
  relative viability: 0.566
NCI-H1944; first compound 2.53 µM
  relative viability: 0.526
NCI-H1944; first compound 8 µM
  relative viability: 0.436
NCI-H1395; first compound 0.08 µM
  relative viability: 0.434
NCI-H1395; first compound 0.8 µM
  relative viability: 0.425
NCI-H1395; first compound 2.53 µM
  relative viability: 0.384
NCI-H1395; first compound 8 µM
  relative viability: 0.366
NCI-H1734; first compound 0.08 µM
  relative viability: 0.587
NCI-H1734; first compound 0.8 µM
  relative viability: 0.692
NCI-H1734; first compound 2.53 µM
  relative viability: 0.593
NCI-H1734; first compound 8 µM
  relative viability: 0.622
NCI-H1666; first compound 0.08 µM
  relative viability: 0.871
NCI-H1666; first compound 0.8 µM
  relative viability: 0.885
NCI-H1666; first compound 2.53 µM
  relative viability: 0.782
NCI-H1666; first compound 8 µM
  relative viability: 0.922
CAL-12T; first compound 0.08 µM
  relative viability: 0.641
CAL-12T; first compound 0.8 µM
  relative viability: 0.697
CAL-12T; first compound 2.53 µM
  relative viability: 0.61
CAL-12T; first compound 8 µM
  relative viability: 0.676
NCI-H838; first compound 0.08 µM
  relative viability: 0.946
NCI-H838; first compound 0.8 µM
  relative viability: 1.05
NCI-H838; first compound 2.53 µM
  relative viability: 0.912
NCI-H838; first compound 8 µM
  relative viability: 0.992
NCI-H647; first compound 0.08 µM
  relative viability: 0.379
NCI-H647; first compound 0.8 µM
  relative viability: 0.674
NCI-H647; first compound 2.53 µM
  relative viability: 0.365
NCI-H647; first compound 8 µM
  relative viability: 0.309
PC-14; first compound 0.08 µM
  relative viability: 0.339
PC-14; first compound 0.8 µM
  relative viability: 0.419
PC-14; first compound 2.53 µM
  relative viability: 0.345
PC-14; first compound 8 µM
  relative viability: 0.258
NCI-H3122; first compound 0.08 µM
  relative viability: 0.946
NCI-H3122; first compound 0.8 µM
  relative viability: 1.06
NCI-H3122; first compound 2.53 µM
  relative viability: 1.06
NCI-H3122; first compound 8 µM
  relative viability: 1.01
PC-3 [JPC-3]; first compound 0.08 µM
  relative viability: 0.765
PC-3 [JPC-3]; first compound 0.8 µM
  relative viability: 0.888
PC-3 [JPC-3]; first compound 2.53 µM
  relative viability: 0.797
PC-3 [JPC-3]; first compound 8 µM
  relative viability: 0.724
HCC-366; first compound 0.08 µM
  relative viability: 0.317
HCC-366; first compound 0.8 µM
  relative viability: 0.314
HCC-366; first compound 2.53 µM
  relative viability: 0.291
HCC-366; first compound 8 µM
  relative viability: 0.281
LC-2-ad; first compound 0.08 µM
  relative viability: 0.884
LC-2-ad; first compound 0.8 µM
  relative viability: 0.888
LC-2-ad; first compound 2.53 µM
  relative viability: 0.916
LC-2-ad; first compound 8 µM
  relative viability: 0.814
NCI-H522; first compound 0.08 µM
  relative viability: 0.865
NCI-H522; first compound 0.8 µM
  relative viability: 1.05
NCI-H522; first compound 2.53 µM
  relative viability: 0.91
NCI-H522; first compound 8 µM
  relative viability: 0.756
HARA; first compound 0.08 µM
  relative viability: 0.37
HARA; first compound 0.8 µM
  relative viability: 0.455
HARA; first compound 2.53 µM
  relative viability: 0.52
HARA; first compound 8 µM
  relative viability: 0.362
NCI-H1993; first compound 0.08 µM
  relative viability: 0.821
NCI-H1993; first compound 0.8 µM
  relative viability: 0.723
NCI-H1993; first compound 2.53 µM
  relative viability: 0.89
NCI-H1993; first compound 8 µM
  relative viability: 0.606
LU99A; first compound 0.08 µM
  relative viability: 0.335
LU99A; first compound 0.8 µM
  relative viability: 0.4
LU99A; first compound 2.53 µM
  relative viability: 0.372
LU99A; first compound 8 µM
  relative viability: 0.233
HCC-15; first compound 0.08 µM
  relative viability: 1.14
HCC-15; first compound 0.8 µM
  relative viability: 1.15
HCC-15; first compound 2.53 µM
  relative viability: 1.46
HCC-15; first compound 8 µM
  relative viability: 1.41
